# From PubChem BioAssay (NCI)
#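 A five-concentration, 48-hour dose response in 96-well plates underlies each endpoint, interpolated linearly between surrounding concentrations. GI50 is the concentration that inhibits growth by half. TGI marks complete inhibition of growth.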
# Assays:
# Assay in all cases: DTP human tumour cell line panel, 48 h
# NCI-H522 lung = system: NCI-H522 lung
# A549 NSCLC = system: A549 NSCLC
# HS 578T breast = system: HS 578T breast
# SK-MEL-5 melanoma = system: SK-MEL-5 melanoma
# T-47D breast = system: T-47D breast
# OVCAR-3 ovarian = system: OVCAR-3 ovarian
# NCI/ADR-RES ovarian = system: NCI/ADR-RES ovarian
# TK-10 renal = system: TK-10 renal
# A498 renal = system: A498 renal
# MDA-MB-231 breast = system: MDA-MB-231 breast
# NCI-H23 lung = system: NCI-H23 lung
# SN12C renal = system: SN12C renal
# U251 CNS = system: U251 CNS
# NCI-H460 lung = system: NCI-H460 lung
# HL-60(TB) leukemia = system: HL-60(TB) leukemia
# UACC-257 melanoma = system: UACC-257 melanoma
# SNB-19 CNS = system: SNB-19 CNS
# DU-145 prostate = system: DU-145 prostate
# CCRF-CEM leukemia = system: CCRF-CEM leukemia
# PC-3 prostate = system: PC-3 prostate
# HCT-15 colon = system: HCT-15 colon
# SK-MEL-28 melanoma = system: SK-MEL-28 melanoma
# SR leukemia = system: SR leukemia
# SF-268 CNS = system: SF-268 CNS
# CAKI-1 renal = system: CAKI-1 renal
# OVCAR-8 ovarian = system: OVCAR-8 ovarian
# HOP-62 NSCLC = system: HOP-62 NSCLC
# OVCAR-4 ovarian = system: OVCAR-4 ovarian
structure (smiles),measurement,setting,value
COc1ccc2c(c1)C(=O)c1c-2c(=O)n(CCCCCCC(=O)NO)c2ccccc12,GI50,NCI-H522 lung,82.2 nM
same,TGI,NCI-H522 lung,1170 nM
same,GI50,A549 NSCLC,416 nM
same,TGI,A549 NSCLC,3190 nM
same,GI50,HS 578T breast,160 nM
same,TGI,HS 578T breast,4470 nM
same,GI50,SK-MEL-5 melanoma,184 nM
same,TGI,SK-MEL-5 melanoma,1080 nM
same,GI50,T-47D breast,94.8 nM
same,TGI,T-47D breast,526 nM
same,GI50,OVCAR-3 ovarian,292 nM
same,TGI,OVCAR-3 ovarian,2110 nM
same,GI50,NCI/ADR-RES ovarian,94.1 nM
same,TGI,NCI/ADR-RES ovarian,2290 nM
same,GI50,TK-10 renal,74.3 nM
same,TGI,TK-10 renal,1680 nM
same,GI50,A498 renal,245 nM
same,TGI,A498 renal,985 nM
same,GI50,MDA-MB-231 breast,715 nM
same,TGI,MDA-MB-231 breast,26000 nM
same,GI50,NCI-H23 lung,296 nM
same,TGI,NCI-H23 lung,1810 nM
same,GI50,SN12C renal,1360 nM
same,TGI,SN12C renal,88200 nM
same,GI50,U251 CNS,352 nM
same,TGI,U251 CNS,2010 nM
same,GI50,NCI-H460 lung,269 nM
same,TGI,NCI-H460 lung,> 100000 nM
same,GI50,HL-60(TB) leukemia,325 nM
same,TGI,HL-60(TB) leukemia,> 100000 nM
same,GI50,UACC-257 melanoma,223 nM
same,TGI,UACC-257 melanoma,2310 nM
same,GI50,SNB-19 CNS,616 nM
same,TGI,SNB-19 CNS,13400 nM
same,GI50,DU-145 prostate,428 nM
same,TGI,DU-145 prostate,10800 nM
same,GI50,CCRF-CEM leukemia,138 nM
same,TGI,CCRF-CEM leukemia,> 100000 nM
same,GI50,PC-3 prostate,491 nM
same,TGI,PC-3 prostate,> 100000 nM
same,GI50,HCT-15 colon,602 nM
same,TGI,HCT-15 colon,> 100000 nM
same,GI50,SK-MEL-28 melanoma,478 nM
same,TGI,SK-MEL-28 melanoma,3120 nM
same,GI50,SR leukemia,99.9 nM
same,TGI,SR leukemia,> 100000 nM
same,GI50,SF-268 CNS,1060 nM
same,TGI,SF-268 CNS,9800 nM
same,GI50,CAKI-1 renal,720 nM
same,TGI,CAKI-1 renal,3720 nM
same,GI50,OVCAR-8 ovarian,329 nM
same,TGI,OVCAR-8 ovarian,25200 nM
same,GI50,HOP-62 NSCLC,98.7 nM
same,TGI,HOP-62 NSCLC,2710 nM
same,GI50,OVCAR-4 ovarian,1110 nM
same,TGI,OVCAR-4 ovarian,17500 nM
